# Columns and labels:
# [1] = test system: human A1 adenosine receptor; settings: cited from earlier work
# [2] = target: T1, human A1 receptor subtype (Homo sapiens, UniProt P30542); test: Adenosine 1 receptor subtype saturation and competition radioligand binding ([3H]DPCPX, yeast membranes)
# T1 construct: yeast alpha-factor (Mfα1) prepro leader (N, cleaved yes); expressed in transfected cells; host or cells: Saccharomyces cerevisiae (strain CY12660 or related strains carrying plasmid p5095)
# T1 sequence (P30542 1-326): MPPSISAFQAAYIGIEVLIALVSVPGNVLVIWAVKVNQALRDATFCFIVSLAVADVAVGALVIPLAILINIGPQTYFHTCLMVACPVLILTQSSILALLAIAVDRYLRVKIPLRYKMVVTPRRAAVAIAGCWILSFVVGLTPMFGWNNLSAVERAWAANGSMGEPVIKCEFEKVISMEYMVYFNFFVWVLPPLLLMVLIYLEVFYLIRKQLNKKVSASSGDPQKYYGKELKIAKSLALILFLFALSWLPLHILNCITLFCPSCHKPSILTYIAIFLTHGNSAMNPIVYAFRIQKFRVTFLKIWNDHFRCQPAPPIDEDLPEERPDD
# human adenosine A1 (A1R) = target: T2, human adenosine A1 (A1R) (Homo sapiens, UniProt P30542); test: Yeast β-galactosidase reporter gene assay, strain CY12660; assay type: cell-based; settings: inhibition of NECA-induced β-galactosidase activity
# T2 construct: yeast alpha-factor (Mfα1) prepro leader (N, cleaved yes); expressed in transfected cells; host or cells: Saccharomyces cerevisiae (strain CY12660 or related strains carrying plasmid p5095)
# T2 sequence (P30542 1-326): T1 sequence (P30542 1-326)
# [3] = target: T3, human A2a receptor subtype (Homo sapiens, UniProt P29274); test: Adenosine 2a receptor subtype competition radioligand binding ([3H]CGS-21680, HEK293 membranes); settings: no footnote at cell; footnote 8 of table: % activity @ 10 μM
# T3 construct: expressed in transfected cells; host or cells: HEK-293 (Cadus clone # 5)
# [4] = target: T4, human A3 receptor subtype (Homo sapiens, UniProt P0DMS8); test: Adenosine 3 receptor competition radioligand binding ([125I]AB-MECA, HEK293 membranes)
# T4 construct: expressed in transfected cells; host or cells: HEK293
# T4 sequence (P0DMS8 1-318): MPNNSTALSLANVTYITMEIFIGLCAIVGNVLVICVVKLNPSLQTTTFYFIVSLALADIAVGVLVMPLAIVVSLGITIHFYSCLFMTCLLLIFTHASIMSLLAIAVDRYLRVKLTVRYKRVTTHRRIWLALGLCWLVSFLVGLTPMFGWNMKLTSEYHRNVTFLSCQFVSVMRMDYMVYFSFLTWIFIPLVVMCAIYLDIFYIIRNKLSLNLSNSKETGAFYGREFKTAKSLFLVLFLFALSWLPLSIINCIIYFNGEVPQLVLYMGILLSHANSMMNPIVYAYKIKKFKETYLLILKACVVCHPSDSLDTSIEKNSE
# human A2a receptor = settings: read-out: Reported Ki; cited from earlier work
# T3 sequence (P29274 whole entry): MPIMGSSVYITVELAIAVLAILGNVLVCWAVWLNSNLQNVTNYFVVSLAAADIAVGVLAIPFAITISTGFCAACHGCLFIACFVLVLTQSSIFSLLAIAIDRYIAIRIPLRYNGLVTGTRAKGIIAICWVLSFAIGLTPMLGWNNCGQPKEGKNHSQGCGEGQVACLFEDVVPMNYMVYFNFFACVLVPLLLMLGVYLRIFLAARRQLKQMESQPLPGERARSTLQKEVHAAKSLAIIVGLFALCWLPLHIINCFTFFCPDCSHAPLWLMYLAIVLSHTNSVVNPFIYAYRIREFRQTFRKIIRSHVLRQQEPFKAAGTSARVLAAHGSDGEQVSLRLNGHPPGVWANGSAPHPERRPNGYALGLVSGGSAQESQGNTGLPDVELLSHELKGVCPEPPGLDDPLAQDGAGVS
compound,measurement,setting,value
"CC(Cc1ccccc1)Nc1ncnc2c1ncn2[C@@H]1O[C@H](CO)[C@@H](O)[C@H]1O (single isomer, unassigned; (-)) [PIA, (−)-N6-(2-phenylisopropyl)-adenosine]",reported affinity,[1],approximately 50 nM
Cc1[nH]c2nc(-c3ccccc3)nc(NC3CCC(NS(C)(=O)=O)CC3)c2c1C (stereo not drawn) [Compound 604],Ki,[2],> 10 µM
Cc1[nH]c2nc(-c3ccccc3)nc(NC3CCC(NC(=O)c4ccccc4)CC3)c2c1C (stereo not drawn) [Compound 606],IC50,human adenosine A1 (A1R),> 10 µM
same,Ki,[2],0.298 µM
Cc1[nH]c2nc(-c3ccccc3)nc(NC3CCC(CC(=O)c4ccccc4)CC3)c2c1C (stereo not drawn) [Compound 611],IC50,human adenosine A1 (A1R),> 10 µM
same,Ki,[2],0.786 µM
Cc1[nH]c2nc(-c3cccnc3)nc(N[C@H]3CC[C@H](O)CC3)c2c1C [Compound 700],IC50,human adenosine A1 (A1R),> 10 µM
CNC(=O)NCCCNc1nc(-c2ccccc2)nc2[nH]c(C)c(C)c12 [Compound 1310],"A2a binding, % value printed in Ki column",[3],76%
Cc1[nH]c2nc(-c3ccccc3)nc(NCCNC(=O)C3(N)CC3)c2c1C [Compound 1313],"A1 binding, % value printed in Ki column","[2]; no footnote at cell, footnote 8 of table: % activity @ 10 μM",30%
same,"A2a binding, % value printed in Ki column",[3],65%
O[C@H]1CC[C@H](Nc2nc(-c3ccncc3)nc3[nH]ccc23)CC1 [Compound 1321],"A3 binding, % activity @ 10 μM",[4],54%^8
NC(=O)[C@@H]1CCCN1c1nc(-c2ccccc2)nc2[nH]ccc12 [Compound 1602],melting point,,236 to 238 °C
COCc1cc2c(N3CCC[C@H]3C(N)=O)nc(-c3ccccc3)nc2[nH]1 [Compound 1605],melting point,,213 to 215 °C
"NC(=O)[C@@H]1C[C@H](O)CN1c1nc(-c2ccccc2)nc2[nH]ccc12 [Compound 1606, 4-Hydroxy-1-(2-phenyl-7H-pyrrolo[2,3-d]pyrimidin-4-yl]-pyrrolidine-2-carboxylic acid amide]",melting point,,268 to 271 °C
"NC(=O)[C@@H]1CCCN1c1nc(-c2ccccc2)nc2[nH]c(C(=O)O)cc12 [Compound 1619, [4-(2-Carbamoylpyrrolidin-1-yl)-2-phenyl-7H-pyrrolo[2,3-d]pyrimidine-6-carboxylic acid]]",melting point,,220 °C (dec.)
"COC(=O)c1cc2c(NC3CCC(O)CC3)nc(-c3ccccc3)nc2[nH]1 (stereo not drawn) [Compound 1627, 4-(4-Hydroxy-cyclohexylamino)-2-phenyl-7H-pyrrolo[2,3-d]pyrimidine-6-carboxylic acid methyl ester]",melting point,,225 to 227 °C
"NC(=O)c1cc2c(NC3CCC(O)CC3)nc(-c3ccccc3)nc2[nH]1 (stereo not drawn) [Compound 1630, 4-(4-Hydroxy-cyclohexylamino)-2-phenyl-7H-pyrrolo[2,3-d]pyrimidine-6-carboxylic acid amide]",melting point,,210 to 220 °C (dec.)
